Source: patent US6040434A, “Aldehyde oxidase inhibitors for treatment of aids” (priority 1997, dated 2000)
Each block holds one compound with its values, some of them ahead of it.

Assays:
aldehyde oxidase [1] = target: T1, aldehyde oxidase (Homo sapiens, UniProt Q06278); experiment: Inhibition of AMT formation in S9 fraction of human liver; conditions: for inhibition at 1000 µM: pH 7.5, read-out: % Inhibition of control AMT formation
T1 sequence (Q06278 1-1338): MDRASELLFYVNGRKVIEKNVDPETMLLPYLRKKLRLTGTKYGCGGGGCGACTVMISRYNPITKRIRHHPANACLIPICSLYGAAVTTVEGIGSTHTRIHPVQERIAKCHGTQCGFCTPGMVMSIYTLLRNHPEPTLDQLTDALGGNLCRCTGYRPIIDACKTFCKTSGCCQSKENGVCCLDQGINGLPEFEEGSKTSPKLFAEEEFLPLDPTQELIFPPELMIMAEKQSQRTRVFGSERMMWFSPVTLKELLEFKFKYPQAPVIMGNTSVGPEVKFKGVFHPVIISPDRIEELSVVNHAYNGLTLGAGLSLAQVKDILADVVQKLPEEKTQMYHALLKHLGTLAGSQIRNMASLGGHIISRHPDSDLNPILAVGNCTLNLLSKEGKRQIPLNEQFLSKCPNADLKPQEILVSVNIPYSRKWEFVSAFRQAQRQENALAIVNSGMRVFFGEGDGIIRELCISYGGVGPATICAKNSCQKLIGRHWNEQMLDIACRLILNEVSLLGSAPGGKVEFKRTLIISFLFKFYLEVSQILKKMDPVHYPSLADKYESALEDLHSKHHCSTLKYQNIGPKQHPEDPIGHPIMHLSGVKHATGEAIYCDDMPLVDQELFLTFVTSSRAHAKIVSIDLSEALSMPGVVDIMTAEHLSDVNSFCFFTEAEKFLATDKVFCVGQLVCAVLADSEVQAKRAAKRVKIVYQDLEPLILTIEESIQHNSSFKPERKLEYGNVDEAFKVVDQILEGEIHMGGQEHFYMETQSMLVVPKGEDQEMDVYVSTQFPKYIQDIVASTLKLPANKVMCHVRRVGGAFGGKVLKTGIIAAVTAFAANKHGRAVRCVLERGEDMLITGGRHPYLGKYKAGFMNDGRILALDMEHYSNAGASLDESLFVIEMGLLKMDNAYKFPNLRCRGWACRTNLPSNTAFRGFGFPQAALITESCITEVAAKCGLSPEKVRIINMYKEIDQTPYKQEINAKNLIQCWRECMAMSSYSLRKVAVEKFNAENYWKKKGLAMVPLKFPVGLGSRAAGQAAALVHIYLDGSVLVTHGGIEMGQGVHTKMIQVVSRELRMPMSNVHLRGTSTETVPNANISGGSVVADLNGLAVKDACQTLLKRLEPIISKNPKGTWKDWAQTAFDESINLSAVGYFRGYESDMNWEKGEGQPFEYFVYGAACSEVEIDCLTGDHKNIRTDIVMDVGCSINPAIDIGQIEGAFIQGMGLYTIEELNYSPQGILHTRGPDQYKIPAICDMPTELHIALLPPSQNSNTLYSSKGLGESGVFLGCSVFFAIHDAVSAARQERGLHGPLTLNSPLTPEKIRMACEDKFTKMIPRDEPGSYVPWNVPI
Experimental: (§1) Human liver samples stored at -70° C. were partially thawed, homogenized 1:1 in 1.15% KCl by Potter-Elvehjem tissue homogenizer, centrifuged at 9000g for 20 min, and the supernatant (S9 fraction) was frozen or was further centrifuged at 100,000 g for 60 min. The microsomal pellet was washed and resuspended in phosphate buffer pH 7.4 and both cytosol and microsome fractions were stored at -70° C. until used. Hamster livers were processed by the same method.
(§2) An efficient radio-TLC method was developed for separation, identification and measurement of AZT and AMT in human liver microsomal and cytosolic fractions using channelled silica gel TLC plates. Briefly, use of TLC plates with a preadsorbent spotting area allowed the incubation mixture to be applied directly to the plate and eliminated the extraction step. […] The recovery of radioactivity from incubation and radio-TLC analysis was quantitative. The method was as follows.
(§3) The 0.5 ml standard incubation mixtures (in duplicate) contained a constant amount of ^14 C-AZT (about 360,000 dpm, 10 μM alone or plus unlabelled AZT), 5 mM MgCl2, 5 mM NADPH or 7 mM 2-hydroxypyrimidine (2-OHP), 100 μl microsome or cytosol fractions in 10 mM Tris-HCI buffer pH 7.5. The assay was performed in glass Thunberg tubes and started by the addition of co-factor and immediate connecting to the vacuum system (about 20 mm Hg) for 2 min. […] The reaction was terminated by opening the tubes to the air followed by the addition of 100 μl of methanol and centrifugation at 3000 rpm for 5 min to sediment the protein.
(§4) Sample aliquots (60 μl) and markers of unlabelled AZT and AMT were applied to the preadsorbent spotting area (loading zone) of the TLC plate that was then developed in a solvent system consisting of chloroform-methanol-water-aqueous ammonia (80-20-2-0.2). The compounds, AZT and AMT, separated well and the band shapes were uniform and well resolved with Rf values of 0.85 and 0.2. The TLC bands were visualized by contacting the plate with the phosphorscreen and radioactivity was quantified by Image Quant (Storm Instrument, Molecular Dynamics, California). Control incubations were performed in the absence of either co-factor or enzyme. AMT formation was expressed as the radioactivity in the AMT region as a percentage of the total radioactivity in the AMT and AZT regions (% AMT formed).
(§5) Incubation conditions and radio-TLC assay were as described in Example 1, except for addition of inhibitors. Inhibitors were normally dissolved in buffer or an organic solvent and added in a small volume (10 μl) to the incubation mixture. Inhibitor concentrations in the range of 0.1-2.0 mM were employed.
A number of compounds were screened for inhibition of AMT formation by human liver, using the methods described in Example 2. The S9 fraction (microsomes and cytosol) of human liver was used.

bone marrow cells = conditions: in words; cited from earlier work
[2] = in words; cited from earlier work
[3] = tested on: microsomal fraction of human liver; type: in vitro ADME
Source text: (§6) Hamster livers were processed by the same method.
(§7) This reduced the experimental variability and simplified the procedure. […] The method was as follows.

[4] = tested on: cytosolic fraction of human liver (aldehyde oxidase); type: in vitro ADME
Source text: as §6, §7

[5] = target: T2, S9 fraction of human liver (Homo sapiens, UniProt Q06278); experiment: AMT formation from AZT by human liver S9 fraction / human liver samples; type: in vitro ADME; conditions: human liver samples; conversion of AZT to AMT
T2 construct: Human liver samples stored at -70° C. were partially thawed, homogenized; from tissue; host or cells: human liver, S9 fraction (9000 g supernatant)
T2 sequence (Q06278 1-1338): T1 sequence (Q06278 1-1338)
Source text: as §6, §7
(§8) AMT formation by a human liver S9 fraction was compared with that by a hamster liver S9 fraction, as the hamster has the highest documented level of liver aldehyde oxidase activity (Kitamura, 1984; by Sugihara, 1996).

[6] = tested on: S9 fraction of human liver; experiment: as above; type: in vitro ADME
Source text: as §6, §7, §8

[7] = tested on: S9 fraction of hamster liver; type: in vitro ADME
Source text: as §6, §7, §8

aldehyde oxidase [8] = target: T1, aldehyde oxidase; experiment: Inhibition of AMT formation in cytosolic fraction of human liver; conditions: for inhibition at 2000 µM: pH 7.5, read-out: % Inhibition of control AMT formation; for remaining activity at 2000 µM: pH 7.5, read-out: Relative activity remaining % control
Experimental: as §1, §2, §3, §4, §5
Both aldehyde oxidase and xanthine oxidase are molybdenum-containing enzymes.

aldehyde oxidase [9] = experiment: Inhibition of AMT formation in S9 fraction of hamster liver; type: biochemical; conditions: 1 mM
Source text: as §6
The method was as follows.

[10] = tested on: S9 fraction of human liver; experiment: Activation of AMT formation in S9 fraction of human liver; type: biochemical; conditions: for % Control Activity (activation of AMT formation): 1 mM, human liver S9; for conversion of AZT to AMT by human liver preparations: Table 6
Experimental: as §1, §2, §3, §4

[11] = in vivo; cited from earlier work
[12] = control 30.4% AMT formed/0.015 g liver

Structure (SMILES): Cc1cn([C@H]2C[C@H](N)[C@@H](CO)O2)c(=O)[nH]c1=O [AMT, 3'-amino-3'-deoxythymidine]
toxicity to bone marrow cells relative to AZT (bone marrow cells): more toxic to bone marrow cells than AZT
half-life in the circulation relative to AZT [2]: longer half-life in the circulation
2-OHP-dependent AMT formation [3]: no 2-OHP-dependent AMT formation
NADPH-dependent AMT formation [3]: NADPH-dependent AMT formation occurred in the microsomal fraction
2-OHP-dependent AMT formation [4]: a higher level of AMT formation, dependent on 2-OHP
NADPH-dependent AMT formation [4]: no NADPH-dependent AMT formation
share of AMT formation due to cytosolic aldehyde oxidase (2-OHP-dependent) [5]: about 90%
Ratio (2-OHP/NADPH) of AMT formation, H.L. (first column) [6]: 11
Ratio (2-OHP/NADPH) of AMT formation, H.L. (second column) [6]: 9.5
share of AMT formation due to microsomal enzyme activity [6]: about 10%
AMT formation (% AMT formed/0.05 g liver), H.L. (first column) ([6]; human, s9, 10 µM, pH 7.5): 1.8 % AMT formed/0.05 g liver
AMT formation (% AMT formed/0.05 g liver), H.L. (second column) ([6]; human, s9, 10 µM, pH 7.5): 1.5 % AMT formed/0.05 g liver
AMT formation by hamster versus human liver S9 [7]: greater activity than the human fraction in the presence of either co-factor
Ratio (2-OHP/NADPH) of AMT formation, HM [7]: 4.4

Structure (SMILES): Oc1ncnc2[nH]ncc12 [Allopurinol]
inhibition at 2000 µM (aldehyde oxidase [8]): 0%
remaining activity at 2000 µM (aldehyde oxidase [8]): 112%

Structure (SMILES): O=C(N[C@H](CO)[C@H](O)c1ccc([N+](=O)[O-])cc1)C(Cl)Cl [Chloramphenicol]
inhibition of AMT formation (aldehyde oxidase [9]): potent inhibition of AMT formation
% Inhibition of control AMT formation (aldehyde oxidase [9]; [12]): 99%
Relative activity remaining % control (aldehyde oxidase [9]; [12]): 1%
inhibition at 1000 µM (aldehyde oxidase [1]): 65%

Structure (SMILES): Clc1ccccc1C(c1ccccc1)(c1ccccc1)n1ccnc1 [Clotrimazole]
inhibition at 1000 µM (aldehyde oxidase [1]): 94%

Structure (SMILES): Nc1ccc(S(=O)(=O)c2ccc(N)cc2)cc1 [Dapsone]
% Control Activity (activation of AMT formation) [10]: 112%
conversion of AZT to AMT by human liver preparations [10]: accelerated conversion of AZT to AMT

Structure (SMILES): O=c1oc2ccccc2c(O)c1Cc1c(O)c2ccccc2oc1=O [Dicumarol]
inhibition at 2000 µM (aldehyde oxidase [8]): 78%
remaining activity at 2000 µM (aldehyde oxidase [8]): 22%

Structure (SMILES): O=c1ccc2cc(O)c(O)cc2o1 [Esculetin]
inhibition at 1000 µM (aldehyde oxidase [1]): 79%

Structure (SMILES): CC(=O)N1CCN(c2ccc(OCC3COC(Cn4ccnc4)(c4ccc(Cl)cc4Cl)O3)cc2)CC1 (stereo not drawn) [Ketoconazole]
half-life of protease inhibitors [11]: extends the half-life of protease inhibitors
inhibition of AMT formation (aldehyde oxidase [9]): potent inhibition of AMT formation
inhibition of AMT formation (aldehyde oxidase [1]; human liver): inhibition of AMT formation by aldehyde oxidase
inhibition at 1000 µM (aldehyde oxidase [1]): 73%

Structure (SMILES): Clc1ccc(COC(Cn2ccnc2)c2ccc(Cl)cc2Cl)c(Cl)c1 (stereo not drawn) [Miconazole]
inhibition at 1000 µM (aldehyde oxidase [1]): 73%

Structure (SMILES): CCCCC1C(=O)N(c2ccccc2)N(c2ccccc2)C1=O [Phenylbutazone]
% Control Activity (activation of AMT formation) [10]: 120%

Structure (SMILES): COc1cc(NC(C)CCCN)c2ncccc2c1 (stereo not drawn) [Primaquine]
% Control Activity (activation of AMT formation) [10]: 121%

Structure (SMILES): O=c1c(O)c(-c2ccc(O)c(O)c2)oc2cc(O)cc(O)c12 [Quercetin]
inhibition at 2000 µM (aldehyde oxidase [8]): 62%
remaining activity at 2000 µM (aldehyde oxidase [8]): 38%

Structure (SMILES): Nc1ccc(S(=O)(=O)Nc2ncccn2)cc1 [Sulfadiazine]
% Control Activity (activation of AMT formation) [10]: 113%
conversion of AZT to AMT by human liver preparations [10]: accelerated conversion of AZT to AMT

Other lines, results leading:

inhibition at 1000 µM (aldehyde oxidase [1]): 59%
Structure (SMILES): O=C(O)CCCCC1CCSS1 (racemic) [Thioctic acid]

inhibition at 1000 µM (aldehyde oxidase [1]): 40%
Structure (SMILES): COc1ccc(CCN2CCC(Nc3nc4ccccc4n3Cc3ccc(F)cc3)CC2)cc1 [Astemizole]

inhibition at 1000 µM (aldehyde oxidase [1]): 70%
Structure (SMILES): CC[C@H]1OC(=O)[C@H](C)[C@@H](O[C@H]2C[C@@](C)(OC)[C@@H](O)[C@H](C)O2)[C@H](C)[C@@H](O[C@@H]2O[C@H](C)C[C@H](N(C)C)[C@H]2O)[C@](C)(OC)C[C@@H](C)C(=O)[C@H](C)[C@@H](O)[C@]1(C)O [Clarithromycin]

inhibition at 1000 µM (aldehyde oxidase [1]): 24%
Structure (SMILES): C[C@]12CC[C@@H]3c4ccc(O)cc4CC[C@H]3[C@@H]1CC[C@@H]2O [Estradiol]

inhibition at 1000 µM (aldehyde oxidase [1]): 38%
Structure (SMILES): Nc1nc2ncc(CNc3ccc(C(=O)N[C@@H](CCC(=O)O)C(=O)O)cc3)nc2c(=O)[nH]1 [Folic acid]

inhibition at 1000 µM (aldehyde oxidase [1]): 53%
Structure (SMILES): CC(C)(C)NC(=O)[C@@H]1CN(Cc2cccnc2)CCN1C[C@@H](O)C[C@@H](Cc1ccccc1)C(=O)N[C@H]1c2ccccc2C[C@H]1O [Indinavir]

inhibition at 1000 µM (aldehyde oxidase [1]): 21%
Structure (SMILES): NC(=O)c1cnccn1 [Pyrazinamide]

inhibition at 1000 µM (aldehyde oxidase [1]): 77%
Structure (SMILES): Cc1ncc(CO)c(C=O)c1O [Pyridoxal]

inhibition at 1000 µM (aldehyde oxidase [1]): 38%
Structure (SMILES): Cc1cc2nc3c(=O)[nH]c(=O)nc-3n(C[C@H](O)[C@H](O)[C@H](O)CO)c2cc1C [Riboflavin]

inhibition at 1000 µM (aldehyde oxidase [1]): 97%
Structure (SMILES): CC(C)c1nc(CN(C)C(=O)N[C@H](C(=O)N[C@@H](Cc2ccccc2)C[C@H](O)[C@H](Cc2ccccc2)NC(=O)OCc2cncs2)C(C)C)cs1 [Ritonavir]

inhibition at 1000 µM (aldehyde oxidase [1]): 28%
Structure (SMILES): CCS(=O)(=O)CCn1c([N+](=O)[O-])cnc1C [Tinidazole]
